From ChEMBL document CHEMBL1201862, “PubChem BioAssay data set” (2004)
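Method: 48-hour compound exposure of cells in 96-well plates, five concentrations, linear interpolation of endpoints. The concentration for 50% growth inhibition is given as GI50.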 Active and inactive are the calls of the source. No stated cut-off is given here; in the data, active = GI50 up to about 1.1 µM and inactive = higher.

What was measured:
Assay in all cases: DTP human tumour cell line panel, 48 h
CAKI-1 = test system: CAKI-1
SN12C = test system: SN12C
DU-145 = test system: DU-145
SK-MEL-2 = test system: SK-MEL-2
NCI-H23 = test system: NCI-H23
HCT-116 = test system: HCT-116
MDA-N = test system: MDA-N
OVCAR-3 = test system: OVCAR-3
HCT-15 = test system: HCT-15
IGROV-1 = test system: IGROV-1
OVCAR-5 = test system: OVCAR-5
UACC-257 = test system: UACC-257
HCC 2998 = test system: HCC 2998
SK-MEL-28 = test system: SK-MEL-28
SF-295 = test system: SF-295
MDA-MB-231 = test system: MDA-MB-231
RXF 393 = test system: RXF 393
Malme-3M = test system: Malme-3M
HOP-62 = test system: HOP-62

Structure (SMILES) | GI50 (CAKI-1) | GI50 (SN12C) | GI50 (DU-145) | GI50 (SK-MEL-2) | GI50 (NCI-H23) | GI50 (HCT-116) | GI50 (MDA-N) | GI50 (OVCAR-3) | GI50 (HCT-15) | GI50 (IGROV-1) | GI50 (OVCAR-5) | GI50 (UACC-257) | GI50 (HCC 2998) | GI50 (SK-MEL-28) | GI50 (SF-295) | GI50 (MDA-MB-231) | GI50 (RXF 393) | GI50 (Malme-3M) | GI50 (HOP-62)
CCOC(=O)c1c(C)n(Cc2ccc(Cl)cc2Cl)c2c1cc(O)c1[nH]c3c(c12)CCCC3 | 22.8 µM (inactive) | 22.9 µM (inactive) | 36.4 µM (inactive) | 24 µM (inactive) | 27.5 µM (inactive) | 40.7 µM (inactive) | 21.2 µM (inactive) | 38 µM (inactive) | 41.7 µM | 24.9 µM (inactive) | 36.2 µM (inactive) | 19.3 µM (inactive) | 27.3 µM (inactive) | 22.1 µM (inactive) | 29.3 µM (inactive) | 34.2 µM (inactive) | 18.5 µM (inactive) | 20.6 µM (inactive) | 27.5 µM (inactive)
S=C(NCCc1ccccn1)N/N=C(\c1ccccc1)c1ccccn1 | < 0.01 µM (active) | < 0.015 µM (active) | 3.4 µM (inactive) | 21.5 µM (inactive) | 0.125 µM (active) | < 0.01 µM (active) | 8.2 µM (inactive) | 0.0989 µM (active) | 0.0277 µM | < 0.0103 µM (active) | 7.82 µM (inactive) | 0.113 µM (active) | 12.1 µM (inactive) | 14.7 µM (inactive) | 2.33 µM (inactive) | 0.0247 µM (active) | 2.4 µM (inactive) | 0.0251 µM (active) | 1.77 µM (inactive)
COc1cc(OC)c2c(c1)OC(c1ccccc1)CC2=O (stereo not drawn) [DIMETHYLPINOCEMBRIN] | > 10 µM (inactive) | > 10 µM (inactive) | > 10 µM (inactive) | > 10 µM (inactive) | > 10 µM (inactive) | > 10 µM (inactive) | > 10 µM (inactive) | > 10 µM (inactive) | > 10 µM | > 10 µM (inactive) | > 10 µM (inactive) | > 10 µM (inactive) | > 10 µM (inactive) | > 10 µM (inactive) | > 10 µM (inactive) | > 10 µM (inactive) | > 10 µM (inactive) | > 10 µM (inactive) | > 10 µM (inactive)
CS(C)(=O)=N/C=C\C(=O)C(Cl)(Cl)Cl | > 100 µM (inactive) | > 100 µM (inactive) | > 100 µM (inactive) | 46.8 µM (inactive) | > 100 µM (inactive) | 98.6 µM (inactive) | 65.2 µM (inactive) | > 100 µM (inactive) | > 100 µM | 93.5 µM (inactive) | > 100 µM (inactive) | > 100 µM (inactive) | > 100 µM (inactive) | > 100 µM (inactive) | > 100 µM (inactive) | > 100 µM (inactive) | > 100 µM (inactive) | > 100 µM (inactive) | 99.1 µM (inactive)
c1ccc2c3c(ccc2c1)CSCc1ccc2ccccc2c1-3 | > 100 µM (inactive) | > 100 µM (inactive) | > 100 µM (inactive) | > 100 µM (inactive) | > 100 µM (inactive) | > 100 µM (inactive) | > 100 µM (inactive) | > 100 µM (inactive) | > 100 µM | > 100 µM (inactive) | > 100 µM (inactive) | 43.5 µM (inactive) | > 100 µM (inactive) | > 100 µM (inactive) | > 100 µM (inactive) | > 100 µM (inactive) | > 100 µM (inactive) | > 100 µM (inactive) | > 100 µM (inactive)
CCN(CC)CCc1c2c(nc3ccccc13)C(=O)c1cccnc1C2=O | 2.03 µM (inactive) | 1.1 µM (active) | 0.344 µM (active) | 2.94 µM (inactive) | 3.08 µM (inactive) | 0.325 µM (active) | 1.67 µM (inactive) | 0.055 µM (active) | 0.188 µM | 1.74 µM (inactive) | 4.63 µM (inactive) | 1.38 µM (inactive) | 2.54 µM (inactive) | 1.8 µM (inactive) | 2.02 µM (inactive) | 1.83 µM (inactive) | 2.37 µM (inactive) | 2.02 µM (inactive) | 2.44 µM (inactive)
COc1cc2nc(-c3c(F)cccc3F)n(Cc3c(F)cccc3F)c2cc1Cc1c(F)cccc1F | 8.77 µM (inactive) | > 69.8 µM (inactive) | > 100 µM (inactive) | > 49.8 µM (inactive) | > 100 µM (inactive) | > 26.7 µM (inactive) | > 100 µM (inactive) | 4.73 µM (inactive) | > 100 µM | 0.292 µM (active) | > 100 µM (inactive) |  | 20.6 µM (inactive) | 0.35 µM (active) | > 100 µM (inactive) | 27.7 µM (inactive) | 1.55 µM (inactive) | > 24.8 µM (inactive) | > 100 µM (inactive)
Oc1cnnc2nc3ccccc3n12 | > 100 µM (inactive) | > 100 µM (inactive) | > 100 µM (inactive) | > 100 µM (inactive) | > 100 µM (inactive) | > 100 µM (inactive) | > 100 µM (inactive) |  | > 100 µM | > 100 µM (inactive) | > 100 µM (inactive) | > 100 µM (inactive) | > 100 µM (inactive) | > 100 µM (inactive) | > 100 µM (inactive) | > 100 µM (inactive) | > 100 µM (inactive) | > 100 µM (inactive) | > 100 µM (inactive)
CCC(C)C(NC(=O)C(CCCCN)NC(=O)C(NC(=O)C(CCC(N)=O)NC(=O)C(CCCNC(=N)N)NC(C)=O)C(C)CC)C(=O)NC(Cc1c[nH]c2ccccc12)C(=O)NC(Cc1ccccc1)C(=O)NC(CCC(N)=O)C(=O)NC(CC(N)=O)C(=O)NC(CCCNC(=N)N)C(=O)NC(CCCNC(=N)N)C(=O)NC(CCSC)C(=O)NC(CCCCN)C(=O)NC(Cc1c[nH]c2ccccc12)C(=O)NC(CCCCN)C(=O)NC(CCCCN)C(N)=O (stereo not drawn) | 35.5 µM (inactive) | 16.5 µM (inactive) | > 50 µM (inactive) | > 50 µM (inactive) | > 50 µM (inactive) | > 50 µM (inactive) | > 50 µM (inactive) | 31.1 µM (inactive) | > 50 µM | > 50 µM (inactive) | 11.1 µM (inactive) | 46.5 µM (inactive) | > 50 µM (inactive) | > 50 µM (inactive) | > 50 µM (inactive) | 14.3 µM (inactive) | > 50 µM (inactive) | 34.1 µM (inactive) | 39.6 µM (inactive)
COc1ccc(C2CC(c3ccc4ccccc4c3O)=NN2)cc1OC (stereo not drawn) | > 100 µM (inactive) | 48.6 µM (inactive) | 77.6 µM (inactive) | 52 µM (inactive) | 49.9 µM (inactive) | 38.6 µM (inactive) | 21 µM (inactive) | 33.1 µM (inactive) | 41.7 µM | 83.4 µM (inactive) | > 100 µM (inactive) | 57.8 µM (inactive) | 45.6 µM (inactive) | 76.4 µM (inactive) | 44.8 µM (inactive) | 25.2 µM (inactive) | 74.1 µM (inactive) | 61.8 µM (inactive) | 54.6 µM (inactive)
COc1ccc2[nH]cc(C=C3C(=O)NC(=S)NC3=O)c2c1 | > 100 µM (inactive) | > 100 µM (inactive) | > 100 µM (inactive) | 92.3 µM (inactive) | 31.2 µM (inactive) | > 100 µM (inactive) | > 100 µM (inactive) | > 100 µM (inactive) | > 100 µM | > 100 µM (inactive) | > 100 µM (inactive) | > 100 µM (inactive) | > 100 µM (inactive) | > 100 µM (inactive) | 94.8 µM (inactive) | 48.6 µM (inactive) | 30.3 µM (inactive) | > 100 µM (inactive) | 45.9 µM (inactive)
CC(=O)Oc1cccc2c(/C=N/NC(N)=S)ncc(C)c12 | 4.17 µM (inactive) | 0.863 µM (active) | 0.347 µM (active) | 5.94 µM (inactive) | 0.746 µM (active) | 1.96 µM (inactive) | 3.59 µM (inactive) | 0.381 µM (active) | 2.88 µM | 2.99 µM (inactive) | 7.35 µM (inactive) | 5.51 µM (inactive) | 0.818 µM (active) | 13.2 µM (inactive) | 2.47 µM (inactive) | 2.58 µM (inactive) | 4.15 µM (inactive) | 1.26 µM (inactive) | 1.07 µM (active)
CCOC(=O)/C=C(/C(=O)OCC)n1ccc(=O)[nH]c1=O | 0.938 µM (active) | 7.78 µM (inactive) | 15.5 µM (inactive) | 15.8 µM (inactive) | 10.4 µM (inactive) | 2.48 µM (inactive) | 10.8 µM (inactive) | 3.59 µM (inactive) | 3.08 µM | 15.2 µM (inactive) | 5.93 µM (inactive) | 12.6 µM (inactive) | 16.5 µM (inactive) | 6.56 µM (inactive) | 18.7 µM (inactive) | 10.8 µM (inactive) | 4.21 µM (inactive) | 1.9 µM (inactive) | 19.6 µM (inactive)
O=C(/C=c1\oc(=O)/c(=C/C(=O)c2ccc(Cl)cc2)oc1=O)c1ccc(Cl)cc1 | > 100 µM (inactive) | > 100 µM (inactive) | > 100 µM (inactive) | > 100 µM (inactive) | > 100 µM (inactive) | > 100 µM (inactive) | > 100 µM (inactive) | 49.9 µM (inactive) | 98.2 µM | 63.4 µM (inactive) | > 100 µM (inactive) | > 100 µM (inactive) | > 100 µM (inactive) | > 100 µM (inactive) | > 100 µM (inactive) | > 100 µM (inactive) | 60.7 µM (inactive) | 51.3 µM (inactive) | > 100 µM (inactive)
COc1ccc(NC(S)=Nc2ccccc2)cc1 | > 100 µM (inactive) | > 100 µM (inactive) | > 100 µM (inactive) | > 100 µM (inactive) | > 100 µM (inactive) | > 100 µM (inactive) | > 100 µM (inactive) | > 100 µM (inactive) | > 100 µM | > 100 µM (inactive) | > 100 µM (inactive) | 39.4 µM (inactive) | > 100 µM (inactive) | > 100 µM (inactive) | > 100 µM (inactive) | > 100 µM (inactive) | 98.2 µM (inactive) | > 100 µM (inactive) | > 100 µM (inactive)
